In patent US7601745B2, “Heterocyclic NF-kB inhibitors” (4SC AG, priority 2004, dated 2009):

The compounds below were run on A549-NF-κB-SEAP reporter cells (assay: Inhibition of NF-κB-induced inflammation ([…] NINA Instant Assay, SEAP reporter)). Settings: NF-κB inflammation assay.
Assay type: cell-based
Source text: For the determination of anti-inflammatory activity of the compounds the […]® NINA Instant Assay from Cell Culture Service GmBH was used. This assay is based on recombinant A549-NF-κB-SEAP reporter cells preseeded in 96-well flat bottom plates. As the transfected reportergen for SEAP (secreted embryonic alkaline phosphatase) is under transcriptional control of a NF-κB-responsive element, the expression of this reporter is activated upon stimulation with TNF-α. SEAP secretion into the culture supernatant can be detected by the chemiluminescent substrate CSPD®. Test compounds that inhibit the NF-κB activation show reduced SEAP activity and reduced luminescent readout.
Following 18 h of reactivation at 37° C., 5% CO2 and 90% relative humidity, the cells were incubated with 0.01 up to 100 μM of test compound for 4.5 h before stimulation with 2 ng/ml TNF-α. After stimulation with TNF-α for 22 h endogenous phosphatases were inactivated and CSPD® substrate was supplied for 40 min. SEAP activity then was quantified by measuring luminescence as relative light units (RLU) using a Tecan Ultra reader. Each data point was recorded in quadruplicates and EC50 values were calculated via fitting function and the Microsoft Excel Solver.

Structure (SMILES)	Biological activity (inhibition in the NF-κB inflammation assay)
Cc1cc2nc(NC(=O)c3csc(NC(=O)c4ccccc4OC(F)(F)F)n3)[nH]c2cc1C [compound 25]	+++ (“+++” stands for 90-100% inhibition)
N=C(NC(=O)c1coc(NC(=O)c2ccc(C(F)(F)F)c(F)c2)n1)Nc1nc2ccccc2[nH]1 [compound 27]	+++ (“+++” stands for 90-100% inhibition)
N=C(NC(=O)c1csc(N2CCN(Cc3ccccc3)CC2)n1)Nc1nc2ccccc2[nH]1 [compound 30]	+++ (“+++” stands for 90-100% inhibition)
O=C(Nc1nc2ccccc2[nH]1)c1csc(NC(=O)c2ccccc2OC(F)(F)F)n1 [compound 31]	+++ (“+++” stands for 90-100% inhibition)
N=C(NC(=O)c1csc(C2CCN(C(=O)c3ccccc3OC(F)(F)F)CC2)n1)Nc1nc2ccccc2[nH]1 [compound 36]	+++ (“+++” stands for 90-100% inhibition)
Cc1cc2nc(NC(=O)c3coc(NC(=O)c4ccccc4OC(F)(F)F)n3)[nH]c2cc1C [compound 40]	+++ (“+++” stands for 90-100% inhibition)
CN1CCN(c2ccc3nc(NC(=O)c4csc(NC(=O)c5ccccc5OC(F)(F)F)n4)sc3c2)CC1 [compound 42]	+++ (“+++” stands for 90-100% inhibition)
O=C(Nc1nc2ccc([N+](=O)[O-])cc2[nH]1)c1csc(NC(=O)c2ccccc2OC(F)(F)F)n1 [compound 43]	+++ (“+++” stands for 90-100% inhibition)
N=C(NC(=O)c1csc(NC(=O)c2ccccc2C2CCCCC2)n1)Nc1nc2ccccc2[nH]1 [compound 45]	+++ (“+++” stands for 90-100% inhibition)
Cn1c(NC(=O)c2csc(NC(=O)c3ccccc3OC(F)(F)F)n2)nc2ccccc21 [compound 46]	+++ (“+++” stands for 90-100% inhibition)
CCCS(=O)(=O)c1ccc2[nH]c(NC(=O)c3csc(NC(=O)c4ccccc4OC(F)(F)F)n3)nc2c1 [compound 47]	+++ (“+++” stands for 90-100% inhibition)
N=C(NC(=O)c1csc(N2CCOCC2)n1)Nc1nc2ccccc2[nH]1 [compound 49]	+++ (“+++” stands for 90-100% inhibition)
N=C(NC(=O)c1csc(NC(=O)c2ccc(C(F)(F)F)cc2)n1)Nc1nc2ccccc2[nH]1 [compound 51]	+++ (“+++” stands for 90-100% inhibition)
CCCS(=O)(=O)c1ccc2[nH]c(NC(=O)c3csc(C4CCN(C(=O)c5ccccc5OC(F)(F)F)CC4)n3)nc2c1 [compound 52]	+++ (“+++” stands for 90-100% inhibition)
NC(=Nc1nc2ccccc2[nH]1)NC(=O)c1csc(NC(=O)c2ccc(C(F)(F)F)cc2F)n1 [compound 53]	+++ (“+++” stands for 90-100% inhibition)
NC(=Nc1nc2ccccc2[nH]1)NC(=O)c1csc(NC(=O)Nc2ccccc2OC(F)(F)F)n1 [compound 54]	+++ (“+++” stands for 90-100% inhibition)
NC(=Nc1nc2ccccc2[nH]1)NC(=O)c1csc(NC(=O)c2ccc(C(F)(F)F)c(F)c2)n1 [compound 56]	+++ (“+++” stands for 90-100% inhibition)
NC(=Nc1nc2ccccc2[nH]1)NC(=O)c1csc(NC(=O)c2c(F)cccc2F)n1 [compound 57]	+++ (“+++” stands for 90-100% inhibition)

Same assay, conditions: compounds of formula (I); TNF-α stimulated reporter cells; test concentration not given

Structure (SMILES)	Biological activity (NF-κB inflammation assay, inhibition)
COc1ccc(OC)c(N2CCC(c3nc(C(=O)N4CCN(c5cccc(C(F)(F)F)c5)CC4)cs3)CC2)c1 [compound 29]	++ (“++” means 80-90%)
O=C(c1csc(C2CCN(CCC(c3ccccc3)c3ccccc3)CC2)n1)N1CCN(c2cccc(C(F)(F)F)c2)CC1 [compound 35]	+++ (“+++” stands for 90-100% inhibition)
N#Cc1ccc(C(=O)N2CCC(c3nc(C(=O)N4CCN(c5cccc(C(F)(F)F)c5)CC4)cs3)CC2)cc1 [compound 70]	++ (“++” means 80-90%)

Same assay, conditions: compounds of formula (II); TNF-α stimulated reporter cells; test concentration not given

Structure (SMILES)	Biological activity (NF-κB inflammation assay, inhibition)
O=C(Nc1nc(C(=O)N2CCN(c3cccc(C(F)(F)F)c3)CC2)cs1)c1ccccc1OC(F)(F)F [compound 32]	+++ (“+++” stands for 90-100% inhibition)
O=C(CCC1CCCC1)Nc1nc(C(=O)N2CCN(c3cccc(C(F)(F)F)c3)CC2)cs1 [compound 33]	+++ (“+++” stands for 90-100% inhibition)
O=C(Nc1nc(C(=O)N2CCN(c3cccc(C(F)(F)F)c3)CC2)cs1)c1ccc(C(F)(F)F)c(F)c1 [compound 34]	+++ (“+++” stands for 90-100% inhibition)
O=C(CCC1CCCC1)N1CCN(c2nc(C(=O)N3CCN(c4cccc(C(F)(F)F)c4)CC3)cs2)CC1 [compound 37]	+++ (“+++” stands for 90-100% inhibition)
COc1ccccc1C(=O)N1CCN(c2nc(C(=O)N3CCN(c4cccc(C(F)(F)F)c4)CC3)cs2)CC1 [compound 38]	+++ (“+++” stands for 90-100% inhibition)
O=C(c1csc(N2CCN(C(=O)c3ccccc3OC(F)(F)F)CC2)n1)N1CCN(c2cccc(C(F)(F)F)c2)CC1 [compound 39]	+++ (“+++” stands for 90-100% inhibition)
O=C(Nc1nc(C(=O)N2CCN(c3ccc(Cl)c(Cl)c3)CC2)cs1)c1ccccc1OC(F)(F)F [compound 41]	+++ (“+++” stands for 90-100% inhibition)
COc1ccccc1N1CCN(C(=O)c2csc(NC(=O)c3ccccc3OC(F)(F)F)n2)CC1 [compound 44]	++ (“++” means 80-90%)
O=C(Nc1nc(C(=O)N2CCN(c3cccc(C(F)(F)F)c3)CC2)cs1)Nc1ccccc1OC(F)(F)F [compound 55]	+++ (“+++” stands for 90-100% inhibition)
O=C(Nc1nc(C(=O)N2CCN(C(c3ccccc3)c3ccccc3)CC2)cs1)c1ccccc1OC(F)(F)F [compound 58]	++ (“++” means 80-90%)
O=C(c1cc(C(F)(F)F)cc(C(F)(F)F)c1)N1CCN(c2nc(C(=O)N3CCN(c4cccc(C(F)(F)F)c4)CC3)cs2)CC1 [compound 59]	+ (“+” stands for 50-80% inhibition)
O=C(c1ccc(C(F)(F)F)c(F)c1)N1CCN(c2nc(C(=O)N3CCN(c4cccc(C(F)(F)F)c4)CC3)cs2)CC1 [compound 60]	+++ (“+++” stands for 90-100% inhibition)
N#Cc1ccc(C(=O)N2CCN(c3nc(C(=O)N4CCN(c5cccc(C(F)(F)F)c5)CC4)cs3)CC2)cc1 [compound 61]	+++ (“+++” stands for 90-100% inhibition)
N#Cc1ccc(CN2CCN(c3nc(C(=O)N4CCN(c5cccc(C(F)(F)F)c5)CC4)cs3)CC2)cc1 [compound 62]	+++ (“+++” stands for 90-100% inhibition)
CC(C)(C)OC(=O)N1CCN(c2nc(C(=O)N3CCN(c4cccc(C(F)(F)F)c4)CC3)cs2)CC1 [compound 63]	++ (“++” means 80-90%)
O=C(c1csc(N2CCNCC2)n1)N1CCN(c2cccc(C(F)(F)F)c2)CC1 [compound 64]	+ (“+” stands for 50-80% inhibition)
COc1ccccc1N1CCN(c2nc(C(=O)N3CCN(c4cccc(C(F)(F)F)c4)CC3)cs2)CC1 [compound 65]	++ (“++” means 80-90%)
CC(=O)c1ccc(N2CCN(c3nc(C(=O)N4CCN(c5cccc(C(F)(F)F)c5)CC4)cs3)CC2)cc1 [compound 66]	++ (“++” means 80-90%)
O=C(c1csc(N2CCN(c3cccc(C(F)(F)F)c3)CC2)n1)N1CCN(c2cccc(C(F)(F)F)c2)CC1 [compound 67]	+ (“+” stands for 50-80% inhibition)
O=C(c1csc(N2CCN(c3ccccc3)CC2)n1)N1CCN(c2cccc(C(F)(F)F)c2)CC1 [compound 68]	+ (“+” stands for 50-80% inhibition)
O=C(c1csc(N2CCN(c3ccc(F)cc3)CC2)n1)N1CCN(c2cccc(C(F)(F)F)c2)CC1 [compound 69]	++ (“++” means 80-90%)
O=C(c1csc(N2CCN(Cc3ccccc3)CC2)n1)N1CCN(C(c2ccccc2)c2ccccc2)CC1 [compound 71]	+++ (“+++” stands for 90-100% inhibition)
O=C(c1csc(N2CCN(Cc3ccccc3)CC2)n1)N1CCN(c2cccc(C(F)(F)F)c2)CC1 [compound 72]	+++ (“+++” stands for 90-100% inhibition)

Same assay, conditions: compounds of formula (Ia); TNF-α stimulated reporter cells; test concentration not given

Structure (SMILES)	Biological activity (NF-κB inflammation assay, inhibition)
O=C(Nc1cc(F)cc2c1OCCO2)N1CCC(c2nc(C(=O)N3CCN(c4cccc(C(F)(F)F)c4)CC3)cs2)CC1 [compound 74]	++ (“++” means 80-90%)
O=C(Nc1ccc2c(c1)OCCO2)N1CCC(c2nc(C(=O)N3CCN(c4cccc(C(F)(F)F)c4)CC3)cs2)CC1 [compound 75]	++ (“++” means 80-90%)
Cc1cc(NC(=O)N2CCC(c3nc(C(=O)N4CCN(c5cccc(C(F)(F)F)c5)CC4)cs3)CC2)c(C(F)(F)F)o1 [compound 76]	++ (“++” means 80-90%)
